Data: patent US12419824B2, “Compounds useful for the treatment and/or care of the skin, hair, nails and/or mucous membranes” (Lubrizol Advanced Materials, Inc., priority 2019, dated 2025)

Legend:
Type in all cases: cell-based
[1] = test system: human muscular skeletal cells (hSKMC); assay: Prevention of TNF-α induced muscle mass loss in human skeletal muscle cells, immunofluorescence (Example 9); conditions: 0.5 mg/ml with 20 ng/ml TNFα, 48 hours, myotube diameter threshold 20 μm
Protocol: Myosin heavy chain (MHyC) is used as a morphologic marker of differentiated myotubes allowing the measurement of their diameter, and therefore knowing their degree of mass loss. Tumor necrosis factor α (TNF-α) has been described in the literature as a muscle mass loss inductor.
Muscle mass loss prevention by the peptides of the invention is evaluated by an immunofluorescence assay. The aim of this study is to investigate the capacity of peptide candidates to prevent muscular mass loss in presence of TNF-α in human muscular skeletal cells (hSKMC).
hSKMC (Tebu-Bio) are seeded in 96-well plates at a density of 1.5×10^4 cells/well in Skeletal Muscle Cell Growth Medium (Promocell). After 24 hours incubation, medium is replaced with Skeletal Muscle Cell Differentiation Medium (Promocell) and cells are differentiated for 6 days. After this, fresh differentiation medium with 0.5 mg/ml of test items and 20 ng/ml of TNFα (Sigma) is added. Treatment is continued for 48 hours and non-treated cells are used as basal control and 20 ng/ml TNFα treated cells are used as a muscle mass loss control. […] Finally, myotube diameter is determined by imaging MHyC staining by Operetta™ (Perkin Elmer). Percentage of mass loss is automatically calculated with Harmony™ (Perkin Elmer) software by classifying myotubes according to their diameter using an atrophic threshold of 20 μm. […]

[2] = test system: human muscular skeletal cells (hSKMC); assay: Alleviation (correction) of TNF-α induced muscle mass loss in human skeletal muscle cells, immunofluorescence (Example 10); conditions: 0.01 mg/ml after 24 hours of 20 ng/ml TNFα, myotube diameter threshold 20 μm
Protocol: Muscle mass loss correction by the peptides of the invention is evaluated by an immunofluorescence assay. The aim of this study is to investigate the capacity of peptide candidates to correct muscular mass loss after treatment with TNF-α in human muscular skeletal cells (hSKMC). Myosin heavy chain (MHyC) is used as a morphologic marker of differentiated myotubes allowing the measurement of their diameter, and therefore knowing their degree of mass loss. Tumor necrosis factor α (TNF-α) has been described in the literature as a muscle mass loss inductor.
hSKMC (Tebu-Bio) are seeded in 96-well plates at a density of 1.5×10^4 cells/well in Skeletal Muscle Cell Growth Medium (Promocell). After 24 hours incubation, medium is replaced with Skeletal Muscle Cell Differentiation Medium (Promocell) and cells are differentiated for 6 days. After this, muscular cells mass loss is induced by adding fresh differentiation medium with 20 ng/ml TNFα (Sigma). Non-TNFα treated cells are used as basal mass loss control (BC). […] After 24 hours after the second treatment, immunofluorescence is determined. […] Finally, myotube diameter is determined by imaging MHyC staining by Operetta™ (Perkin Elmer). Percentage of mass loss is automatically calculated with Harmony™ (Perkin Elmer) software by classifying myotubes according to their diameter using a mass loss threshold of 20 μm.

[3] = test system: human subcutaneous pre-adipocytes; assay: Lipid accumulation in human subcutaneous pre-adipocytes, Adipored staining (Example 13); conditions: coculture of young and old pre-adipocytes, 0.01 mg/ml, 12 days
Source text: The aim of this study is to investigate the capacity of peptide candidates to induce lipid accumulation in human subcutaneous adipocytes, and therefore prevent adipocytes senescence. Measurement of lipid accumulation in a coculture of young and old adipose cells indirectly evaluates the inhibition of senescence-associated secretory phenotype (SASP). A pool of old adipose cells has a higher number of senescent cells. When cocultured with young cells, lipid accumulation observed is below the theoretically expected levels due to senescence induction effect of SASP on young adipocytes.
Induction of lipid accumulation by the peptides of the invention is evaluated by lipid fluorescent staining with Adipored® Assay Reagent. Human subcutaneous pre-adipocytes (donors, Cell applications) cells are cocultured in 96-well plates at a density of 4×10^3 cells/well each age in Human Preadipocyte Growth Medium (Sigma). Monoculture of each age are seeded at a density of 8×10^3 cells/well as age lipid accumulation controls. After 24 hours incubation, differentiation of pre-adipocytes into adipocytes is induced by changing medium to fresh Human Preadipocyte Differentiation Medium (Promocell). […] Finally, fluorescence intensity and nuclei number are measured by Operetta™ (Perkin Elmer). Fluorescence is normalized by cell nuclei and results are represented respect to cocultured basal control.

Substance | muscle mass loss compared to TNF-α treatment (prevention) [1] | muscle mass loss compared to basal control treated with TNF-α (correction) [2] | lipid accumulation compared to basal control and old control [3]
Ac-Asp-Val-Tyr-Lys-NH2 (Ac-DVYK-NH2) [PEP1] | prevent mass loss | correct (i.e., reduces) mass loss | increase lipid accumulation in adipocytes
H-Ala-Leu-Lys-Pro-Asn-Thr-NH2 (H-ALKPNT-NH2) [PEP2] | prevent mass loss | correct (i.e., reduces) mass loss | increase lipid accumulation in adipocytes
